In US6559140B2 (Abbott Laboratories, priority 2000, dated 2003) one finds Ki data, which are given here for 16 molecules.

As usually defined, the Ki is the equilibrium dissociation constant of an inhibitor or competing ligand from its target. A higher Ki goes with lower affinity.

In this experiment the target is H3 receptor (Rattus norvegicus, UniProt Q9QYN8). Nature of the experiment: H3 receptor binding, (3H)-N-α-methylhistamine displacement in rat cortical membranes. Particulars: male Sprague-Dawley rat brain cortical membranes, 30 minutes at 25° C., Cheng-Prusoff, geometric mean values of 2-10 separate experiments.
Sequence of H3 receptor (Q9QYN8 1-397 isoform Q9QYN8-3): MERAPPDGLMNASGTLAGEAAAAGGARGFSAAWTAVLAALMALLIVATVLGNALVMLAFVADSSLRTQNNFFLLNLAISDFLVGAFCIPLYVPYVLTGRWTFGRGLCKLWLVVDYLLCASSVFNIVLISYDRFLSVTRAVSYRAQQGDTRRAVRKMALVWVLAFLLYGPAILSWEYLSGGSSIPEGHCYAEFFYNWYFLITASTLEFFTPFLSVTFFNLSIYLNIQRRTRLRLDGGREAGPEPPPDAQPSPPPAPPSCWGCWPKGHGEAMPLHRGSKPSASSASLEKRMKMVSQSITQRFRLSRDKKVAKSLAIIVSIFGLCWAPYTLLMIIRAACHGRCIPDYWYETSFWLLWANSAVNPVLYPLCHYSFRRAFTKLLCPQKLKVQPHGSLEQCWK
Consider `CC(C)C(=O)N[C@H](C)C(=O)N1CCCN(CCCOc2ccc(-c3noc(CC4CCCC4)n3)c(F)c2)CC1` [Example 177, N-{(1R)-2-[4-(3-{4-[5-(cyclopentylmethyl)-1,2,4-oxadiazol-3-yl]-3-fluorophenoxy}propyl)-1,4-diazepan-1-yl]-1-methyl-2-oxoethyl}-2-methylpropanamide], for which the Ki was 1.78 nM. On to `CC(C)N[C@H](C)C(=O)N1CCN(CCCOc2ccc(C(=O)C3CC3)cc2)CC1` [Example 139, Cyclopropyl(4-(3-(4-((2R)-2-(isopropylamino)propanoyl)-1-piperazinyl)propoxy)phenyl)methanone], for which the Ki amounted to 7.29 nM. In the case of `C[C@@H](NC(=O)c1ccco1)C(=O)N1CCCN(CCCOc2ccc(-c3noc(-c4ccccc4)n3)c(F)c2)CC1` [Example 151, N-[(1R)-2-(4-{3-[3-fluoro-4-(5-phenyl-1,2,4-oxadiazol-3-yl)phenoxy]propyl}-1,4-diazepan-1-yl)-1-methyl-2-oxoethyl]-2-furamide], the affinity corresponds to a Ki of 4.29 nM. Then `N#Cc1ccc(C(=O)NCCC(=O)N2CCN(CCCOc3ccc(-c4noc(-c5ccccc5)n4)c(F)c3)CC2)cc1` [Example 153, 4′-cyano-N-[3-(4-{3-[3-fluoro-4-(5-phenyl-1,2,4-oxadiazol-3-yl)phenoxy]propyl}-1-piperazinyl)-3-oxopropyl]benzamide], with 26.1 nM. In the case of `Cc1cc(C)c(C(=O)NCCC(=O)N2CCN(CCCOc3ccc(-c4noc(-c5ccccc5)n4)c(F)c3)CC2)s1` [Example 156, N-[3-(4-{3-[3-fluoro-4-(5-phenyl-1,2,4-oxadiazol-3-yl)phenoxy]propyl}-1-piperazinyl)-3-oxopropyl]-3,5-dimethyl-2-thiophenecarboxamide], the affinity corresponds to a Ki of 13.7 nM.

For the molecule `C[C@@H](N)C(=O)N1CCN(CCCOc2ccc(-c3noc(CC4CCCC4)n3)c(F)c2)CC1` [Example 168, (2R)-1-[4-(3-{4-[5-(cyclopentylmethyl)-1,2,4-oxadiazol-3-yl]-3-fluorophenoxy}propyl)-1-piperazinyl]-1-oxo-2-propanamine], the Ki worked out at 6.79 nM. With `C[C@@H](NC(=O)[C@H]1CCCN1)C(=O)N1CCN(CCCOc2ccc(C(=O)C3CC3)cc2)CC1` [Example 129, (2R)-N-((1R)-2-(4-(3-(4-(cyclopropylcarbonyl)phenoxy)propyl)-1-piperazinyl)-1-methyl-2-oxoethyl)-2-pyrrolidinecarboxamide], the Ki turned out to be 0.425 nM. Consider `C[C@@H](NC(=O)c1ccco1)C(=O)N1CCN(CCCOc2ccc(-c3noc(-c4ccccc4)n3)c(F)c2)CC1` [Example 161, N-[(1R)-2-(4-{3-[3-fluoro-4-(5-phenyl-1,2,4-oxadiazol-3-yl)phenoxy]propyl}-1-piperazinyl)-1-methyl-2-oxoethyl]-2-furamide], for which affinity was put at a Ki of 2.41 nM. Under `C[C@@H](NC(=O)c1ccco1)C(=O)N1CCCN(CCCOc2ccc(-c3noc(-c4ccncc4)n3)c(F)c2)CC1` [Example 150, N-{(1R)-2-[4-(3-{3-fluoro-4-[5-(4-pyridinyl)-1,2,4-oxadiazol-3-yl]phenoxy}propyl)-1,4-diazepan-1-yl]-1-methyl-2-oxoethyl}-2-furamide] stands 12.6 nM. `O=C(NCCC(=O)N1CCN(CCCOc2ccc(-c3noc(-c4ccccc4)n3)c(F)c2)CC1)[C@H]1CCCO1` [Example 155, (2R)-N-[3-(4-{3-[3-fluoro-4-(5-phenyl-1,2,4-oxadiazol-3-yl)phenoxy]propyl}-1-piperazinyl)-3-oxopropyl]tetrahydro-2-furancarboxamide]: the Ki worked out at 17.1 nM. Then `COc1ccc(C(=O)N[C@H](C)C(=O)N2CCN(CCCOc3ccc(-c4noc(CC5CCCC5)n4)c(F)c3)CC2)cc1F` [Example 185, N-{(1R)-2-[4-(3-{4-[5-(cyclopentylmethyl)-1,2,4-oxadiazol-3-yl]-3-fluorophenoxy}propyl)-1-piperazinyl]-1-methyl-2-oxoethyl}-3-fluoro-4-methoxybenzamide], with 3.28 nM; and “Tert-butyl (1R)-1-benzyl-2-(4-(3-(4-(cyclopropylcarbonyl)phenoxy)propyl)-1-piperazinyl)-2-oxoethylcarbamate [Example 79]”, with 4.78 nM; and `CCCCCC(=O)c1ccc(OCCCN2CCN(C(=O)[C@H](N)CO)CC2)cc1` [Example 52, 1-(4-(3-(4-((2R)-2-amino-3-hydroxypropanoyl)-1-piperazinyl)propoxy)phenyl)-1-hexanone], with 8.39 nM. Then `C[C@@H](NC(=O)c1ccc2c(c1)OCO2)C(=O)N1CCN(CCCOc2ccc(-c3noc(CC4CCCC4)n3)c(F)c2)CC1` [Example 183], with 2.72 nM. As to `C[C@@H](NC(=O)CC(C)(C)C)C(=O)N1CCN(CCCOc2ccc(-c3noc(CC4CCCC4)n3)c(F)c2)CC1` [Example 171, N-{(1R)-2-[4-(3-{4-[5-(cyclopentylmethyl)-1,2,4-oxadiazol-3-yl]-3-fluorophenoxy}propyl)-1-piperazinyl]-1-1-methyl-2-oxoethyl}-3,3-dimethylbutanamide], the Ki came to 5.42 nM.

Turning to `O=C(c1ccc(OCCCN2CCN(C(=O)C[C@H]3CCCN3)CC2)cc1)C1CC1` [Example 86, Cyclopropyl(4-(3-(4-((2R)-pyrrolidinylacetyl)-1-piperazinyl)propoxy)phenyl)methanone], affinity was put at a Ki of 4.64 nM.
